The target in this test is T1, panel of 442 kinases (Homo sapiens, UniProt Q9NRM7).
T1 construct: purchased KINOMEscan
T1 sequence (Q9NRM7 1-1088): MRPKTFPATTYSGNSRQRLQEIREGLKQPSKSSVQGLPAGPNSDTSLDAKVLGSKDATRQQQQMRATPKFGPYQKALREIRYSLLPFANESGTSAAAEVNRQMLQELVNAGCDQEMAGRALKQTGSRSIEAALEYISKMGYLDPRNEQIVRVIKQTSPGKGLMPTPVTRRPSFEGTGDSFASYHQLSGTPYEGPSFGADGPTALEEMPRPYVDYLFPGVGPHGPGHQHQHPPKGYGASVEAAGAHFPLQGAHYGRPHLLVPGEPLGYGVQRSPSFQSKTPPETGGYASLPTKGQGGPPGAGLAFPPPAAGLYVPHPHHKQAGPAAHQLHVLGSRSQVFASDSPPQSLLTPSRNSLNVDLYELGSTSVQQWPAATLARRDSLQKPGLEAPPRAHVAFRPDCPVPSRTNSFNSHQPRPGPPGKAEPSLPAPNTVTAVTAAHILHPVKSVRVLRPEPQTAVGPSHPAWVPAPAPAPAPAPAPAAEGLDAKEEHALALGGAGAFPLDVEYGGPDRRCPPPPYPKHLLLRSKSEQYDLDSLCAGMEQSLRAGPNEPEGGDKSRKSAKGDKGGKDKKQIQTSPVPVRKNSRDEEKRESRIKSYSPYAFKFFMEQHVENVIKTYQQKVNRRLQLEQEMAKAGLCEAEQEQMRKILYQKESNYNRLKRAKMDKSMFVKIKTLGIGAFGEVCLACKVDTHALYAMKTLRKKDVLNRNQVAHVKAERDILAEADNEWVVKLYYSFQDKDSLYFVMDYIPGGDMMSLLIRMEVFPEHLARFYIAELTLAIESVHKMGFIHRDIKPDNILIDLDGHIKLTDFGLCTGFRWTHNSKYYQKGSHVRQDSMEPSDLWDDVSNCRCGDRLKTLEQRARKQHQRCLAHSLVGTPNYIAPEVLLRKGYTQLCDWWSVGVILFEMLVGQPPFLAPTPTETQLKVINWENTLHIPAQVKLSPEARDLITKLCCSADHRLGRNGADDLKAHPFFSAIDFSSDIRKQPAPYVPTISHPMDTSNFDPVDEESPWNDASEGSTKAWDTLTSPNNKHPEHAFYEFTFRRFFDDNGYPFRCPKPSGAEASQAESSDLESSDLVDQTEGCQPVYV
It counts as binding. The conditions noted are these: Compound Concentration 10 µM. From the text:
We assessed the selectivity of members of this scaffold using the KINOMEscan methodology across a near comprehensive panel of 442 kinases [[18,27]].

For `COc1cc(C(=O)N2CCC(N3CCN(C)CC3)CC2)ccc1Nc1ncc2c(n1)N(C1CCCC1)c1ccccc1C(=O)N2C` [Compound 25, 11-cyclopentyl-2-((2-methoxy-4-(4-(4-methylpiperazin-1-yl)piperidine-1-carbonyl)phenyl)amino)-5-methyl-5H-benzo[e]pyrimido[5,4-b][1,4]diazepin-6(11H)-one], the “KINOMEscan: LATS2” value amounted to 92. As to `COc1cc(C(=O)N2CCC(N3CCN(C)CC3)CC2)ccc1Nc1ncc2c(n1)N(C)c1ccccc1C(=O)N2C` [15 (LRRK2-IN-1)], the “KINOMEscan: LATS2” value was determined as 95.

As to `CCOc1cc(C(=O)N2CCC(N3CCN(C)CC3)CC2)ccc1Nc1ncc2c(n1)N(C1CCCC1)c1ccccc1C(=O)N2C` [Compound 26], the “KINOMEscan: LATS2” value is 93.

Values taken from paper PMC3914206.
